Source: US20100144779A1, “Marine Alkalod Makaluvamines and Derivatives Thereof” (THE UAB RESEARCH FOUNDATION, priority 2007, published 2010)
Where two headings read alike, the source gives them in different places.

What was measured:
U87MG = test: MTT growth inhibition assay; type: cell-based, human; conditions: cancer cell, 72 hr, read-out: Growth inhibitory activity (IC50)
A549 = test: Cell cycle progression (propidium iodide, flow cytometry); type: cell-based, human; conditions: 48 hr; for G1 / G2/M / S: A549; for cell cycle arrest: lung cancer A549, dose-dependent
Method: (§1) To determination of the effects of the disclosed compounds on the cell cycle, 2-3×10^5 cells were exposed to the test compounds (0-5 μM) and incubated for 48 hr prior to analysis (Table 6). Cells were trypsinized, washed with PBS and fixed in 1.5 mL 95% ethanol at 4° C. overnight, followed by incubation with RNAse and staining with propidium iodide (Sigma). The DNA content was determined by flow cytometry.

H1299 = test: as above; type: cell-based, human; conditions: 48 hr; for G1 / G2/M / S: H1299; for cell cycle arrest: lung cancer H1299, dose-dependent
Method: as §1

[1] = system: different cancer cell lines; test: Induction of apoptosis (annexin V-FITC); type: cell-based, human; conditions: annexin V-FITC/PI; 0.1-25 μM, 48 hr; effect in the 1-10 μM range
Method: Cells in early and late stages of apoptosis were detected with an annexin V-FITC apoptosis detection kit from BioVision (Mountain View, Calif.). In brief, cells were exposed to the test compounds (0, 0.1, 1, 10, 25 μM) and incubated for 48 hr prior to analysis. Media and cells were collected and washed with serum-free media. Cells were then re-suspended in 500 μL of Annexin V binding buffer followed by addition of 5 μL Annexin VFITC and 5 μL of propidium iodide (PI). The samples were incubated in the dark for 5 min at room temperature prior to analysis. […] Cells that were positive for Annexin V-FITC alone (early apoptosis) and Annexin V-FITC and PI (late apoptosis) were counted.

HCT-116 = test: XTT cytotoxicity assay; type: cell-based, human; conditions: average ± standard deviation of 2-4 independent assays, read-out: Inhibition of Cancer Cell Proliferation (IC50) HCT-116
Method: (§2) In initial experiments, compounds 4a-g and 7c-g were evaluated for their cytotoxicity against human breast cancer cell lines MCF-7 and MDA-MB-468 and human colon cancer cell line HCT-116. The makaluvamine compounds provided in Table 2 were also evaluated for their cytotoxicity against human breast cancer cell lines MCF-7. Compound nos. 8 and 27-33 were not evaluated in this experiment. Cells were obtained from ATCC (Manassas, Va.). For each derivative the IC50 value was determined using data generated from 2-4 independent tetrazolium-based (XTT) cytotoxicity assays (R & D Systems Inc., Minneapolis, Minn.) according to the manufacturer's instructions. […] MCF-7, MDA-MD-468 and HCT-116 cells were grown at 37 degrees C. in a humidified atmosphere with complete growth media supplemented with fetal bovine serum. Growth media was changed 2-3 times per week as required.

MCF-7 = test: XTT cytotoxicity assay; type: cell-based, human; conditions: XTT; average ± standard deviation of 2-4 independent assays; read-out: Inhibition of Cancer Cell Proliferation (IC50) MCF-7
Method: as §2

MDA-MB-468 = test: XTT cytotoxicity assay; type: cell-based, human; conditions: average ± standard deviation of 2-4 independent assays, read-out: Inhibition of Cancer Cell Proliferation (IC50) MDA-MB-468
Method: as §2

topoisomerase II = target: T1, topoisomerase II (Homo sapiens, UniProt P11388); test: Topoisomerase II drug screening kit (relaxation of plasmid DNA); type: biochemical; parameters: key to Topoisomerase II Inhibition: — none; + low; ++ moderate; +++ strong; conditions: for Topoisomerase II Inhibition: 100 μM drug compound, topoisomerase II (4U), 500 ng plasmid DNA; for inhibition of topoisomerase II catalytic activity (in words): 100 μM makaluvamine derivative
T1 construct: purchased TopoGEN, Inc., Port Orange, Fla
Excerpt: In order to determine the effect of the makaluvamine derivatives of the present disclosure, the synthesized makaluvamine derivatives were screened for their ability to inhibit topoisomerase II activity in vitro. Topoisomerase II functions by generating a double-stranded DNA break followed by resealing of the break. Topoisomerase II inhibitors interfere with the breakage-rejoining reaction thereby trapping the enzyme in a cleavage complex. In order to determine if the disclosed makaluvamine derivatives inhibited topoisomerase II activity, nine of the derivatives were tested for topoisomerase II inhibitory activity using a topoisomerase-II drug screening kit (TopoGEN, Inc., Port Orange, Fla.) according to the manufacturer's instructions. The screening kit uses a supercoiled plasmid DNA substrate (pRYG) which contains one topoisomerase II cleavage/recognition site. […] Relaxed DNA was separated using non-ethidium bromide (EtBr) agarose gels, then stained with EtBr and quantified using Kodak Gel Logic Imaging System and Molecular Imaging software (Eastman Kodak Co., Rochester, N.Y.). Inhibition of relaxation of plasmid DNA or catalytic activity was reported as; − none, + low, ++ moderate, or +++ strong.

[2] = system: female, athymic nude mice; conditions: 8, 20 or 40 mg/kg intra-peritoneally, 1 time per week for 3 weeks
Method: To evaluate the potential toxicity of the makaluvamine compounds disclosed, compound 4c was identified for testing in a mouse model. […] Four groups of 5 female, athymic nude mice (Federick Cancer Research, Rockville, Md.) were injected intra-peritoneally, at doses of 8, 20 or 40 mg/kg of compounds 4c (treatment group) or vehicle only (control group). […] Compound 4c was injected at its respective dose in a 200 μl volume of saline:DMSO (100 μl:100 μl). The vehicle only group was injected with 200 μl saline:DMSO. Injections were given 1 time per week for 3 weeks. […] Mice in each groups were evaluated for survival and weight gain/loss during the treatment period.

T1 sequence (P11388 whole entry): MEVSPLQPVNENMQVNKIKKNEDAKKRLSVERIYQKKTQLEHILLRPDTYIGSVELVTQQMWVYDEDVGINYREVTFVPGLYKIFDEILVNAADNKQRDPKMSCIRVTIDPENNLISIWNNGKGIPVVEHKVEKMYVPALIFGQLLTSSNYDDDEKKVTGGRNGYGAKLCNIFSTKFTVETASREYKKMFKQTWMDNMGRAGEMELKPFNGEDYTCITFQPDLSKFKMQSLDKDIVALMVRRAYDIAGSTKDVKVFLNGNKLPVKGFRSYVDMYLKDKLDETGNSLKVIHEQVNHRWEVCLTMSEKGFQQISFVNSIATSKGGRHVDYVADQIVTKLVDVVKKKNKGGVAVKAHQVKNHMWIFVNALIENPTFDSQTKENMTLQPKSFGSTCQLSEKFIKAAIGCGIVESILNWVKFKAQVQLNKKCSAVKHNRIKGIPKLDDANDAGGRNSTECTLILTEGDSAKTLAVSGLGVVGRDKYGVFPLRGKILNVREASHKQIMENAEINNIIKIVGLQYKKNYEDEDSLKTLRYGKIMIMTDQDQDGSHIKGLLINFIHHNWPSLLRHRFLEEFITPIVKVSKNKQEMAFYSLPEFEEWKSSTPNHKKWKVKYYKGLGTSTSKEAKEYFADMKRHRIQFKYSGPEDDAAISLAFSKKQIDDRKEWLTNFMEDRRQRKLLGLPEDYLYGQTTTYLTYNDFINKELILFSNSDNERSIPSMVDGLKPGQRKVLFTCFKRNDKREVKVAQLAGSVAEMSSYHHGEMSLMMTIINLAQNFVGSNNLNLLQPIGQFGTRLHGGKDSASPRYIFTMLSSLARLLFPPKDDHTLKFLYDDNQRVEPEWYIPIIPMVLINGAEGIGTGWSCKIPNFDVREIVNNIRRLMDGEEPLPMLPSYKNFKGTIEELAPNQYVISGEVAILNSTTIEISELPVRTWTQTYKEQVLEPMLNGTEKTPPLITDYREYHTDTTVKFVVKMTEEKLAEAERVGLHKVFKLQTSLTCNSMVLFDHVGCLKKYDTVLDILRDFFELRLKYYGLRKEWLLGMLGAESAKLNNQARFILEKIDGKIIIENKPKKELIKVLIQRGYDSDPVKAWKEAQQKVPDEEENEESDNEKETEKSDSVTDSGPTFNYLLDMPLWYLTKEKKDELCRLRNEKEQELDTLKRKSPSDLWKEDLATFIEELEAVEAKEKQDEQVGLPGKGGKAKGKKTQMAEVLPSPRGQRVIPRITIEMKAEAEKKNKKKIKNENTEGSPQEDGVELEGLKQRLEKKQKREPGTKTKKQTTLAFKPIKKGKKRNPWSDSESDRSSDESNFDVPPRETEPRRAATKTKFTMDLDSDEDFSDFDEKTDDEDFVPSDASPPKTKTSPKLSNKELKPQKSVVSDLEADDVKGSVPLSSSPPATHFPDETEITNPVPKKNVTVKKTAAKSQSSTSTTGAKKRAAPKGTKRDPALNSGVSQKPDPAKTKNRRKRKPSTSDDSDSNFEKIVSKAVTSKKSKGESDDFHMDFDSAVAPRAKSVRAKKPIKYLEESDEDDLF

Structure (SMILES): O=C(O)C(F)(F)F.O=C1C(NCc2ccc(F)cc2)=CC2=NCCc3c[nH]c1c32 [Compound 28]
- IC50 (U87MG; Homo sapiens, U-87 MG): 1710 nM
- G1 (A549; 0.1 μM): 59.91
- G2/M (A549; 0.1 μM): 20.22
- S (A549; 0.1 μM): 19.87
- G1 (A549; 1 μM): 57.88
- G2/M (A549; 1 μM): 20.14
- S (A549; 1 μM): 21.98
- G1 (A549; 5 μM): 46.78
- G2/M (A549; 5 μM): 25.07
- S (A549; 5 μM): 28.14
- cell cycle arrest (A549): cell cycle arrest in the S phase
- G1 (H1299; 0.1 μM): 54.23
- G2/M (H1299; 0.1 μM): 25.17
- S (H1299; 0.1 μM): 20.60
- G1 (H1299; 1 μM): 46.88
- G2/M (H1299; 1 μM): 31.82
- S (H1299; 1 μM): 21.31
- G1 (H1299; 2 μM): 31.52
- G2/M (H1299; 2 μM): 36.36
- S (H1299; 2 μM): 32.11
- cell cycle arrest (H1299): cell cycle arrest in the S phase
- induction of apoptosis [1]: significant induction of apoptosis

Structure (SMILES): O=C1C(NCCc2ccccc2)=CC2=NCCc3c[nH]c1c32 [Compound 4d]
- IC50 (HCT-116): 3900 ± 1200 nM
- IC50 (MCF-7): 1700 ± 500 nM
- IC50 (MDA-MB-468): 300 nM
- Topoisomerase II Inhibition (topoisomerase II): +
- inhibition of topoisomerase II catalytic activity (in words) (topoisomerase II): comparable to etoposide and m-AMSA
- IC50 (U87MG): 4280 nM

Structure (SMILES): CNC1=CC2=NCCc3c[nH]c(c32)C1=O [Compound 4a]
- IC50 (HCT-116): 2500 ± 1300 nM
- IC50 (MCF-7): 1300 ± 100 nM
- IC50 (MDA-MB-468): 400 ± 50 nM
- Topoisomerase II Inhibition (topoisomerase II): —

Structure (SMILES): O=C1C(NCc2ccccc2)=CC2=NCCc3c[nH]c1c32 [Compound 4c]
- IC50 (HCT-116): 1300 ± 200 nM
- IC50 (MCF-7): 1000 nM
- IC50 (MDA-MB-468): 300 nM
- Topoisomerase II Inhibition (topoisomerase II): ++
- inhibition of topoisomerase II catalytic activity (in words) (topoisomerase II): comparable to etoposide and m-AMSA
- IC50 (U87MG): 2880 nM
- G1 (A549; 0.1 μM): 60.23
- G2/M (A549; 0.1 μM): 19.41
- S (A549; 0.1 μM): 20.37
- G1 (A549; 1 μM): 58.62
- G2/M (A549; 1 μM): 19.85
- S (A549; 1 μM): 21.53
- G1 (A549; 5 μM): 47.18
- G2/M (A549; 5 μM): 30.35
- S (A549; 5 μM): 22.48
- cell cycle arrest (A549): cell cycle arrest in the G2/M phase
- G1 (H1299; 0.1 μM): 55.27
- G2/M (H1299; 0.1 μM): 26.89
- S (H1299; 0.1 μM): 17.84
- G1 (H1299; 1 μM): 51.18
- G2/M (H1299; 1 μM): 29.35
- S (H1299; 1 μM): 19.47
- G1 (H1299; 2 μM): 30.46
- G2/M (H1299; 2 μM): 49.58
- S (H1299; 2 μM): 19.96
- cell cycle arrest (H1299): cell cycle arrest in the G2/M phase
- induction of apoptosis [1]: significant induction of apoptosis
- weight changes between treatment groups [2]: No significant weight changes
- weight gain/loss during the treatment period [2]: all mice gained weight
- survival ([2]; observed 21 days): 100%

Structure (SMILES): O=C(O)C(F)(F)F.O=C1C(NCCc2ccc3c(c2)OCO3)=CC2=NCCc3c[nH]c1c32 [Compound 6]
- IC50 (U87MG; Homo sapiens, U-87 MG): 5640 nM
- G1 (A549; 0.1 μM): 58.66
- G2/M (A549; 0.1 μM): 20.85
- S (A549; 0.1 μM): 20.50
- G1 (A549; 1 μM): 58.59
- G2/M (A549; 1 μM): 20.37
- S (A549; 1 μM): 21.04
- G1 (A549; 5 μM): 50.88
- G2/M (A549; 5 μM): 23.36
- S (A549; 5 μM): 25.76
- cell cycle arrest (A549): cell cycle arrest in the G2/M phase
- G1 (H1299; 0.1 μM): 53.99
- G2/M (H1299; 0.1 μM): 30.73
- S (H1299; 0.1 μM): 15.28
- G1 (H1299; 1 μM): 57.20
- G2/M (H1299; 1 μM): 27.57
- S (H1299; 1 μM): 15.22
- G1 (H1299; 5 μM): 35.29
- G2/M (H1299; 5 μM): 41.28
- S (H1299; 5 μM): 23.43
- cell cycle arrest (H1299): cell cycle arrest in the G2/M phase

Structure (SMILES): COc1ccc(CCNC2=CC3=NCCc4c[nH]c(c43)C2=O)cc1OC.O=C(O)C(F)(F)F [Compound 20]
- IC50 (U87MG; Homo sapiens, U-87 MG): 3040 nM
